Test results published in patent publication US10039753B2, “Imidazo[4,5-c]quinoline and imidazo[4,5-c][1,5]naphthyridine derivatives as LRRK2 inhibitors” (Pfizer Inc., priority 2015, dated 2018).
Counter-ions that a name gives are not always drawn. Like-named read-outs stand apart in the source and are kept apart here.

Experiments:
mutant G2019S LRRK2 = mutant G2019S LRRK2 (Homo sapiens, UniProt Q5S007, G2019S); experiment: LRRK2 Assay, Format 2 (Lantha Screen), G2019S mutant; format: biochemical; design: purchased Invitrogen PV4881
[1] = biological target: T1, GST-tagged truncated LRRK2 (Homo sapiens, UniProt Q5S007); experiment: LRRK2 Assay, Format 2 (Lantha Screen), WT; format: biochemical
T1 construct: GST-tagged truncated LRRK2 from Invitrogen (Cat # PV4874); GST; purchased Invitrogen PV4874

[2] = geometric mean of 2-4 determinations unless otherwise indicated (a: >=5; b: single determination), read-out: LRRK2, Format 2 G2019S IC50
[3] = geometric mean of 2-4 determinations unless otherwise indicated (a: >=5; b: single determination)

mutant G2019S LRRK2, sequence (Q5S007 970-2527 G2019S limits assumed): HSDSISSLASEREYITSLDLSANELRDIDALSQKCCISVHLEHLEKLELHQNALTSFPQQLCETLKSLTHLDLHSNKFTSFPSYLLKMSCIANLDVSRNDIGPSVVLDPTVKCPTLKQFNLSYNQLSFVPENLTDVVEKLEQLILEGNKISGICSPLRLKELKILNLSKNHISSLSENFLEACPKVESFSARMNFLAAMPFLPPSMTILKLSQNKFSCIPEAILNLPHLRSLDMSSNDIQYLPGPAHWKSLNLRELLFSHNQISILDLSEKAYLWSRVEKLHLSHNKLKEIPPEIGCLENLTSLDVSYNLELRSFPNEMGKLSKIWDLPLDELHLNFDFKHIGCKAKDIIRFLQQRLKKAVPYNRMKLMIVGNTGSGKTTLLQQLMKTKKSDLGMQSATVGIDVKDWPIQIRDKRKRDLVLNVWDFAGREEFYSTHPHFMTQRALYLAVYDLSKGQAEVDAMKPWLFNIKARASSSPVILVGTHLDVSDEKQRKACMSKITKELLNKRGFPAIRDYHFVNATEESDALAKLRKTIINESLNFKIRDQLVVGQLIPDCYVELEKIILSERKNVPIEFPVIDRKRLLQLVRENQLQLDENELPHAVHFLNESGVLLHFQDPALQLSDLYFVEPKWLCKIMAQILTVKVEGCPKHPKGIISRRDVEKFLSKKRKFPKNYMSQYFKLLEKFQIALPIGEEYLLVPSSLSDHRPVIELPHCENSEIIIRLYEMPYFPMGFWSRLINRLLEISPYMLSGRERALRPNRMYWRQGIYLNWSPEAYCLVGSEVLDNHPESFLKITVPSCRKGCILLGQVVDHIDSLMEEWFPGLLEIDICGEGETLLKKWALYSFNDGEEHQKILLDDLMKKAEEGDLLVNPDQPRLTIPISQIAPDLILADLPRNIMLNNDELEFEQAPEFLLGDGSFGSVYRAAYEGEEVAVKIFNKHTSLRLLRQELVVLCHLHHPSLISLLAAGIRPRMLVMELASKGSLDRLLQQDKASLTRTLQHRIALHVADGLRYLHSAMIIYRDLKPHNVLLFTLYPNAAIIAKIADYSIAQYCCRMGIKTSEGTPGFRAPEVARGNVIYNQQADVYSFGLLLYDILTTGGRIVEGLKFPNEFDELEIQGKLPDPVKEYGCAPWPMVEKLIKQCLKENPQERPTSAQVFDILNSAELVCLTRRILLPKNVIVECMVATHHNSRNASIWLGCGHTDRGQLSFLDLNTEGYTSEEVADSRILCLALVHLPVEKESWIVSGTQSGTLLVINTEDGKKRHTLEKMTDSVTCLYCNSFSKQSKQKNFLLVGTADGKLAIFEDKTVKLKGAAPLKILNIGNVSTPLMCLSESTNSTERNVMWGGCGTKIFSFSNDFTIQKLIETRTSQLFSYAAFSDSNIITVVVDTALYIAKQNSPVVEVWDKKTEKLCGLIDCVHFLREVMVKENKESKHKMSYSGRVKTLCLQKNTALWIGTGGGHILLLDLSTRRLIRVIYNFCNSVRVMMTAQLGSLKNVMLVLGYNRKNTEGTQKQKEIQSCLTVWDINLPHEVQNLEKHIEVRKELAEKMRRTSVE
T1 sequence (Q5S007 970-2527 limits assumed): as the sequence (Q5S007 970-2527 G2019S limits assumed) above, with S1050G counted along it

| Structure (SMILES) | IC50 (mutant G2019S LRRK2; [2]) [nM] | IC50 [1, 3] [nM] | IC50 (mutant G2019S LRRK2; 100 nM LRRKtide, 1000 mM ATP (so in the source), 30 minutes at room temperature, read-out: LRRK2, Format 2 G2019S mutant IC50) [nM] | IC50 ([1]; 100 nM LRRKtide, 1000 mM ATP (so in the source), 30 minutes at room temperature) [nM] |
| --- | --- | --- | --- | --- |
| CCc1cnn(Cc2nc3cnc4ccc(C#N)cc4c3n2CC(C)(F)F)c1 [Example 209, 1-(2,2-difluoropropyl)-2-[(4-ethyl-1H-pyrazol-1-yl)methyl]-1H-imidazo[4,5-c]quinoline-8-carbonitrile] | 9.93 | 8.02 |  |  |
| Cc1nc(Cc2nc3cnc4ccc(C#N)cc4c3n2[C@@H]2CCO[C@H](C)C2)cs1 [Example 234, 1-[(2R,4R)-2-methyltetrahydro-2H-pyran-4-yl]-2-[(2-methyl-1,3-thiazol-4-yl)methyl]-1H-imidazo[4,5-c]quinoline-8-carbonitrile, formate salt] | 9.5 | 10.7 |  |  |
| C[C@@H]1C[C@H](n2c(Cc3ccc(C(F)(F)F)cn3)nc3cnc4ccc(C#N)cc4c32)CCO1 [Example 208, 1-[(2R,4R)-2-methyltetrahydro-2H-pyran-4-yl]-2-{[5-(trifluoromethyl)pyridin-2-yl]methyl}-1H-imidazo[4,5-c]quinoline-8-carbonitrile] | 14.3 | 15 |  |  |
| Cc1cc(Cc2nc3cnc4ccc(C#N)cc4c3n2C2CCCCC2(F)F)no1 (stereo not shown) [Example 151, 1-(2,2-difluorocyclohexyl)-2-[(5-methyl-1,2-oxazol-3-yl)methyl]-1H-imidazo[4,5-c]quinoline-8-carbonitrile, formate salt] | 25.5 | 16.7 |  |  |
| C[C@@H]1C[C@H](n2c(Cn3cnnn3)nc3cnc4ccc(Cl)cc4c32)CCO1 [Example 129, 8-chloro-1-[(2R,4R)-2-methyltetrahydro-2H-pyran-4-yl]-2-(1H-tetrazol-1-ylmethyl)-1H-imidazo[4,5-c]quinoline, formate salt] | 4.17 | 3.64 |  |  |
| C[C@@H]1C[C@H](n2c(CC#N)nc3cnc4ccc(C#N)cc4c32)CCO1 [Example 117, 2-(cyanomethyl)-1-[(2R,4R)-2-methyltetrahydro-2H-pyran-4-yl]-1H-imidazo[4,5-c]quinoline-8-carbonitrile] | 19.6 | 16.8 |  |  |
| C[C@@H]1C[C@H](n2c(Cc3ccc4nnnn4n3)nc3cnc4ccc(Cl)cc4c32)CCO1 [Example 165, 8-chloro-1-[(2R,4R)-2-methyltetrahydro-2H-pyran-4-yl]-2-(tetrazolo[1,5-b]pyridazin-6-ylmethyl)-1H-imidazo[4,5-c]quinoline] | 7.44 | 6.75 |  |  |
| Cc1cc(Cc2nc3cnc4ccc(C#N)cc4c3n2[C@H]2CC[C@@H](F)C2)no1 (single isomer, unassigned) [Example C66] | 42.2 | 29.8 |  |  |
| CCC(F)(F)Cn1c(Cc2cnccn2)nc2cnc3ccc(Cl)cc3c21 [Example 184, 8-chloro-1-(2,2-difluorobutyl)-2-(pyrazin-2-ylmethyl)-1H-imidazo[4,5-c]quinoline] | 22.8 | 34.3 |  |  |
| CC(F)(F)Cn1c(Cn2cc(C(F)(F)F)cn2)nc2cnc3ccc(C#N)cc3c21 [Example 227, 1-(2,2-difluoropropyl)-2-{[4-(trifluoromethyl)-1H-pyrazol-1-yl]methyl}-1H-imidazo[4,5-c]quinoline-8-carbonitrile] | 10.8 | 9.06 |  |  |
| Cc1nn2cc(Cc3nc4cnc5ccc(C#N)cc5c4n3[C@@H]3CC[C@H](F)C3)nc2s1 (single isomer, unassigned; ent-2) [Example 169, 1-(cis-3-fluorocyclopentyl)-2-[(2-methylimidazo[2,1-b][1,3,4]thiadiazol-6-yl)methyl]-1H-imidazo[4,5-c]quinoline-8-carbonitrile, ENT-2] | 5.55 | 3.59 |  |  |
| Cc1cc(Cc2nc3cnc4ccc(C#N)cc4c3n2C2CCCC2)no1 [Example 152, 1-cyclopentyl-2-[(5-methyl-1,2-oxazol-3-yl)methyl]-1H-imidazo[4,5-c]quinoline-8-carbonitrile, formate salt] | 40.8 | 25.1 |  |  |
| Cc1cc(Cc2nc3cnc4ccc(C#N)cc4c3n2CC(C)(F)F)no1 [Example 248, 1-(2,2-difluoropropyl)-2-[(5-methyl-1,2-oxazol-3-yl)methyl]-1H-imidazo[4,5-c]quinoline-8-carbonitrile] | 17.7 | 15 |  |  |
| Cc1cn(Cc2nc3cnc4ccc(C#N)cc4c3n2C2CCC(F)C2)nn1 (single isomer, unassigned; ent-1) [Example C73, 1-(cis-3-fluorocyclopentyl)-2-[(4-methyl-1H-1,2,3-triazol-1-yl)methyl]-1H-imidazo[4,5-c]quinoline-8-carbonitrile, ENT-1] | 26.1 | 20.4 |  |  |
| C[C@@H]1C[C@H](n2c(Cc3cnco3)nc3cnc4ccc(C#N)cc4c32)CCO1 [Example 229, 1-[(2R,4R)-2-methyltetrahydro-2H-pyran-4-yl]-2-(1,3-oxazol-5-ylmethyl)-1H-imidazo[4,5-c]quinoline-8-carbonitrile, formate salt] | 9.37 | 9.71 |  |  |
| Cc1cn(Cc2nc3cnc4ccc(Cl)cc4c3n2C2CCOC(C)(C)C2)nn1 (stereo not shown) [Example 148, 8-chloro-1-(2,2-dimethyltetrahydro-2H-pyran-4-yl)-2-[(4-methyl-1H-1,2,3-triazol-1-yl)methyl]-1H-imidazo[4,5-c]quinoline, formate salt] | 13.6 | 12.6 |  |  |
| Cc1cc(Cc2nc3cnc4ccc(C#N)cc4c3n2C2CCC(F)C2)on1 (single isomer, unassigned; ent-2) [enantiomer of Example 118, 1-(cis-3-fluorocyclopentyl]-2-[(3-methyl-1,2-oxazol-5-yl)methyl]-1H-imidazo[4,5-c]quinoline-8-carbonitrile, ENT-2] |  |  | 26.1 | 22.4 |
| C[C@@H]1C[C@H](n2c(Cc3cnccn3)nc3cnc4ccc(C#N)cc4c32)CCO1 [Example 98, 1-[(2R,4R)-2-Methyltetrahydro-2H-pyran-4-yl]-2-(pyrazin-2-ylmethyl)-1H-imidazo[4,5-c]quinoline-8-carbonitrile, formate salt] | 6.16 | 7.56 |  |  |
| C[C@@H]1C[C@H](n2c(Cn3ccc(C4CC4)n3)nc3cnc4ccc(Cl)cc4c32)CCO1 [Example 160, 8-chloro-2-[(3-cyclopropyl-1H-pyrazol-1-yl)methyl]-1-[(2R,4R)-2-methyltetrahydro-2H-pyran-4-yl]-1H-imidazo[4,5-c]quinoline, formate salt] | 6.36 | 6.23 |  |  |
| C[C@@H]1C[C@H](n2c(Cc3cnccn3)nc3cnc4ccc(Cl)cc4c32)CCO1 [Example 249, 8-chloro-1-[(2R,4R)-2-methyltetrahydro-2H-pyran-4-yl]-2-(pyrazin-2-ylmethyl)-1H-imidazo[4,5-c]quinoline, trifluoroacetate salt] | 18.6 | 16.9 |  |  |
| CC1(C)CC(n2c(Cc3cc(C(F)(F)F)on3)nc3cnc4ccc(C#N)cc4c32)CCO1 (single isomer, unassigned; ent-2) [Example 177, 1-(2,2-dimethyltetrahydro-2H-pyran-4-yl)-2-{[5-(trifluoromethyl)-1,2-oxazol-3-yl]methyl}-1H-imidazo[4,5-c]quinoline-8-carbonitrile, ENT-2] | 914 | 1220 |  |  |
| N#Cc1ccc2ncc3nc(Cc4cc(C(F)(F)F)on4)n([C@@H]4CC[C@H](F)C4)c3c2c1 (single isomer, unassigned; ent-1) [Example 211, 1-(cis-3-fluorocyclopentyl)-2-{[5-(trifluoromethyl)-1,2-oxazol-3-yl]methyl}-1H-imidazo[4,5-c]quinoline-8-carbonitrile, ENT-1] | 18.7 | 12.8 |  |  |
| C[C@@H]1C[C@H](n2c(C(F)c3ccon3)nc3cnc4ccc(Cl)cc4c32)CCO1 (single isomer, unassigned) [Example 238] | 3.82 | 3.88 |  |  |
| Cc1cc(Cc2nc3cnc4ccc(C#N)cc4c3n2C2CCC(F)(F)C2)no1 (stereo not shown) [Example 246, 1-(3,3-difluorocyclopentyl)-2-[(5-methyl-1,2-oxazol-3-yl)methyl]-1H-imidazo[4,5-c]quinoline-8-carbonitrile, formate salt] | 86.5 | 65 |  |  |
| C[C@@H]1C[C@H](n2c(Cc3cccnn3)nc3cnc4ccc(Cl)cc4c32)CCO1 [Example 142, 8-chloro-1-[(2R,4R)-2-methyltetrahydro-2H-pyran-4-yl]-2-(pyridazin-3-ylmethyl)-1H-imidazo[4,5-c]quinoline] | 5.63 | 7.11 |  |  |
| Cc1cnn(Cc2nc3cnc4ccc(C#N)cc4c3n2[C@@H]2CCN(C)C2)c1 [Example 194, 2-[(4-methyl-1H-pyrazol-1-yl)methyl]-1-[(3R)-1-methylpyrrolidin-3-yl]-1H-imidazo[4,5-c]quinoline-8-carbonitrile] | 25.1 | 19.9 |  |  |
| Cc1cc(Cc2nc3cnc4ccc(C#N)cc4c3n2[C@@H]2CCC[C@@H]2F)no1 (single isomer, unassigned; ent-2) [Example 147, 1-(cis-2-fluorocyclopentyl)-2-[(5-methyl-1,2-oxazol-3-yl)methyl]-1H-imidazo[4,5-c]quinoline-8-carbonitrile, ENT-2] | 22.6 | 14.5 |  |  |
| Cc1nn2cc(Cc3nc4cnc5ccc(C#N)cc5c4n3[C@@H]3CC[C@H](F)C3)nc2s1 (single isomer, unassigned; ent-1) [Example 168, 1-(cis-3-fluorocyclopentyl)-2-[(2-methylimidazo[2,1-b][1,3,4]thiadiazol-6-yl)methyl]-1H-imidazo[4,5-c]quinoline-8-carbonitrile, ENT-1] | 11.5 | 7.33 |  |  |
| C[C@@H]1C[C@H](n2c(Cn3cncn3)nc3cnc4ccc(C#N)cc4c32)CCO1 [Example 120, 1-[(2R,4R)-2-methyltetrahydro-2H-pyran-4-yl]-2-(1H-1,2,4-triazol-1-ylmethyl)-1H-imidazo[4,5-c]quinoline-8-carbonitrile, formate salt] | 5.07 | 5.74 |  |  |
